From US9187539B2, “Compositions having antiangiogenic activity and uses thereof” (The Johns Hopkins University, priority 2005, dated 2015)
Entries after “also recorded” stand apart in the source; their conditions may differ.

Columns and labels:
[1] = tested on: human umbilical vein endothelial cells (HUVECs); assay: HUVEC proliferation assay (WST-1), 2- and 4-day, 5,000 cells per well; type: cell-based; conditions: for concentration-response profile in words: 2- and/or 4-day assay
Experimental: The effect of the various peptides on cell proliferation was assayed, by administering the peptides to human umbilical vein endothelial cells (HUVECs) in culture. 45 peptides belonging to four distinct families of proteins including the thrombospondin-1 containing proteins, the C-X-C chemokines, collagen derived peptides and peptides from tissue inhibitors of metalloproteinases were tested. The potency of each of the peptides was tested using the proliferation assay at 2 days and 4 days following administration of the peptides and a similar assay using a different cell density at 3 days. In the four-day experiments, the cell medium was changed after the second day of incubation and the peptide was replaced at the initial concentration together with the medium. TNP-470 is an antiangiogenic compound that was used as a positive control for assessing anti-angiogenic efficacy. The activity of each polypeptide was, therefore, expressed as a percentage of TNP-470 activity, i.e., the optical density obtained experimentally is scaled such that the negative control is 0% and the positive control is 100% as explained below (FIG. 4). Each plate included a well having HUVEC cells that received 0.1 μg/ml TNP-470. For example, a peptide having the same effect on endothelial cell proliferation would have 100% of the activity of TNP-470. Note that activity could exceed 100%. In this assay, the effects of the predicted anti-angiogenic fragments on the ability of HUVECs to proliferate was characterized. […] A commonly used methodology to test for proliferation is to monitor the viability and metabolic activity of endothelial cells, in the presence of the anti-angiogenic fragments at different concentrations and various time steps. The cell proliferation reagent WST-1 was used as a substrate/assay to measure the metabolic activity of viable cells. WST-1 is a colorimetric, non-radioactive assay and can be performed in a microplate. It is suitable for measuring cell proliferation, cell viability or cytotoxicity. The assay is based on the reduction a red tetrazolium salt, WST-1, by viable, metabolically active, cells to form the yellow formazan crystals soluble in the cell medium. […] The cells are cultured described above. Once cells have reached 80% confluence they are trypsinized and resuspended in EGM-2. The cell density is estimated using a hemocytometer. All of the endothelial cells used were from passage 4 to passage 8. The proliferation assay involved two steps. During the first step the cells, approximately 5,000 cells per well for a 96-well plate, were seeded without any extracellular matrix substrate on the wells overnight (8 hours). The initial cell culture medium was removed using a multichannel pipetor and the candidate peptides were applied. A logarithmic scale of four different concentrations of 0.01 μg/ml, 0.1 μg/ml, 1 μg/ml and 10 μg/ml of each peptide was used. Each of the concentrations was tested in quadruplicate. The viability of the cells was challenged at 2 and 4 days upon the application of the peptide. As a positive control for decreased viability, 0.1 μg/ml of TNP-470 (O-(chloro-acetyl-carbamoyl) fumagillol, a synthetic analogue of fumagillin; TNP-470 was provided by NCI, was provided along with the medium, and as a negative control for normal viability, the cells were cultured without the addition of any agent. The cells were then incubated with 10 μl per well of the red WST-1 reagent for approximately 2 to 4 hours. During this incubation period, viable cells converted, in their mitochondria, the red WST-1 to the yellow formazan crystals which dissolve in the medium. The second step of the assay involved the quantification of the changes in proliferation which was performed by measuring the change in color after lysing the cells. The samples were read using the ELISA plate reader Victor3 V (Perkin Elmer) at a wavelength of […]. The amount of color produced is directly proportional to the number of viable cells. […]

[2] = tested on: human umbilical vein endothelial cells (HUVECs); assay: HUVEC proliferation assay (WST-1), 3-day, 2,000 cells per well; type: cell-based; conditions: 3-day assay; for anti-proliferative activity in words: overall; for anti-proliferative activity (maximum or stated level), scaled so that TNP-470 = 100%: 0.01-30 μg/ml; for anti-proliferative activity in words at high peptide concentration: high/highest applied concentration (30 μg/ml where stated)
Experimental: In addition to the 2 and 4 day proliferation experiment where 5,000 cells per well were seeded, the effects of the peptides on the proliferating ability of HUVECs were also studied using cells seeded at a density of 2,000 cells per well. This lower cell seeding density allowed the experiment to be extend for an additional day without changing the cell medium. The effects of the peptides when applied to the cells for 3 consecutive days is also reported herein. The proliferation assay again involved two steps. During the first step 2,000 cells per well for a 96-well plate were seeded without any extracellular matrix substrate on the wells overnight (8 hours). The initial cell culture medium was removed using a multichannel pipetor. To synchronize the cells, the cells were serum starved for 4 hours and the candidate peptides were applied. During serum starvation the cell culture medium was changed from a “full” medium to the “basal” medium, which contained no growth factors or serum. Serum starvation for 4 hours had no effect on the proliferation of the cells. For this assay, the logarithmic scale of four different concentrations of 0.01 μg/ml, 0.1 μg/ml, 1 μg/ml and 10 μg/ml of peptide was used. In addition, a larger concentration of 30 μg/ml peptide was also applied. Each of the concentrations was again tested in quadruplicate. After the third day of peptide application the WST-1 dye was applied for approximately 2 to 4 hours (usually after 3 hours the color saturates). The proliferation was later tested on the ELISA plate reader as described for the 2 and 4 day assay. Note that the 2- and 4-day and the 3-day protocols differed in that 5,000 cells/well versus 2,000 cells/well seeded, respectively.

[3] = 4 days of peptide application, 0.01-10 μg/ml
[4] = 10 μg/ml peptide, 2- and 4-day assay
[5] = 2- and 4-day assay, day not specified or constant throughout the four days
[6] = 2 days of peptide application, 0.01-10 μg/ml
[7] = 2- and 4-day assay, day not specified

AAPFLECQGRQGTCHFFAN [SEQ ID NO: 87, α4CIV CAA56943.1: 1628-1646]
anti-proliferative activity in words ([1]; 2 days of peptide application): intermediate activity
concentration-response profile in words [2]: activity increased with increasing the applied peptide concentration
anti-proliferative activity in words [2]: similar

ASWSACSVSCGGGARQRTR [SEQ ID NO: 45, Fibulin-6 CAC37630.1: 1745-1763]
concentration-response profile in words [1]: biphasic activity
peptide concentration at which maximum activity was observed ([1]; 2 days): 0.1 µg/mL
anti-proliferative activity (maximum or stated level), scaled so that TNP-470 = 100% [1, 3]: approximately 30%
concentration-response profile in words [2]: biphasic response
peptide concentration at which maximum activity was observed [2]: 0.1 µg/mL
anti-proliferative activity (maximum or stated level), scaled so that TNP-470 = 100% [2]: 20%

DGRELCLDPKENWVQRVVEKFLK [SEQ ID NO: 110, IL-8/CXCL8 AAP35730.1: 72-94]
anti-proliferative activity, TNP-470 = 100% [1, 4]: 20%
anti-proliferative activity in words at high peptide concentration [2]: higher

DGRKICLDPDAPRIKKIVQKKL [SEQ ID NO: 114, THBG-β/CXCL7 AAB46877.1: 100-121]
anti-proliferative activity, TNP-470 = 100% [1, 4]: 15%

ECLWTDMLSNFGYPGYQSKHYACI [SEQ ID NO: 155, TIMP 3 AAA21815.1: 148-171]
anti-proliferative activity (maximum or stated level), scaled so that TNP-470 = 100% [1, 5]: 30%
anti-proliferative activity (maximum or stated level), scaled so that TNP-470 = 100% [1, 6]: 30%

GPWAPCSASCGGGSQSRS [SEQ ID NO: 48, Papilin NP_775733.2: 342-359]
anti-proliferative activity (maximum or stated level), scaled so that TNP-470 = 100% [1, 5]: 30%

GPWEDCSVSCGGGEQLRSR [SEQ ID NO: 63, SCO-spondin XP_379967.2: 3781-3799]
anti-proliferative activity (maximum or stated level), scaled so that TNP-470 = 100% [1, 5]: ~15%
anti-proliferative activity in words ([1]; 2- and 4-day assay, overall): low anti-proliferative activity
anti-proliferative activity (maximum or stated level), scaled so that TNP-470 = 100% [2]: 25%

GPWEPCSVTCSKGTRTRRR [SEQ ID NO: 49, Properdin AAP43692.1: 143-161]
peptide concentration at which maximum activity was observed [1, 7]: 0.01 µg/mL
anti-proliferative activity (maximum or stated level), scaled so that TNP-470 = 100% [1, 5]: 30%
concentration-response profile in words [1]: biphasic response
anti-proliferative activity (maximum or stated level), scaled so that TNP-470 = 100% [1, 3]: 20%
anti-proliferative activity in words at high peptide concentration [2]: significantly increased

GPWERCTAQCGGGIQARRR [SEQ ID NO: 60, Semaphorin 5A NP_003957.1: 660-678]
peptide concentration at which maximum activity was observed [1, 7]: higher than 1 μg/ml
anti-proliferative activity (maximum or stated level), scaled so that TNP-470 = 100% [1, 5]: 25%
anti-proliferative activity in words ([1]; 2 days of peptide application): minimum anti-proliferative activity
anti-proliferative activity in words ([1]; 4 days of peptide application): intermediate activity
anti-proliferative activity (maximum or stated level), scaled so that TNP-470 = 100% [2]: 35%

GPWGDCSRTCGGGVQFSSR [SEQ ID NO: 7, ADAMTS-4 CAH72146.1: 527-545]
peptide concentration at which maximum activity was observed ([1]; 4 days): 10 µg/mL
anti-proliferative activity (maximum or stated level), scaled so that TNP-470 = 100% [1, 3]: 35%

GPWGECSRTCGGGVQFSHR [SEQ ID NO: 14, ADAMTS-8 Q9UP79: 534-552]
anti-proliferative activity in words at 10 μg/ml [1, 4]: reduced
concentration-response profile in words [1]: biphasic response
peptide concentration at which maximum activity was observed ([1]; 2 days): 1 µg/mL
anti-proliferative activity (maximum or stated level), scaled so that TNP-470 = 100% [1, 6]: 35%
peptide concentration at which maximum activity was observed ([1]; 4 days): 1 µg/mL
anti-proliferative activity (maximum or stated level), scaled so that TNP-470 = 100% [1, 3]: 30%
concentration-response profile in words [2]: biphasic response

KCHGHGVCNSNKN [SEQ ID NO: 1, ADAM-9 Q13443: 649-661]
anti-proliferative activity (maximum or stated level), scaled so that TNP-470 = 100% [1, 5]: ~20%

LCMTKSDCYQPAWYIHEGFYNLSG [SEQ ID NO: 159, reference compound]
anti-proliferative activity in words ([1]; 2- and 4-day assay, overall): not statistically significant

LRRFSTMPFMFCNINNVCNF [SEQ ID NO: 89, α5CIV AAC27816.1: 1510-1529]
anti-proliferative activity, TNP-470 = 100% [1, 4]: 80%
anti-proliferative activity in words at high peptide concentration [2]: increased even more
anti-proliferative activity in words [2]: reproducible

MQCHGRGVCNNRKN [SEQ ID NO: 2, ADAM-12 O43184: 662-675]
anti-proliferative activity in words ([1]; 2 days of peptide application): showed activity
concentration-response profile in words [2]: activity increasing as the peptide concentration increased

NGKEICLDPEAPFLKKVIQKILD [SEQ ID NO: 95, ENA-78/CXCL5 AAP35453.1: 86-108]
anti-proliferative activity, TNP-470 = 100% ([1]; 0.01 μg/ml peptide, 2 days): approximately 30%
anti-proliferative activity in words at high peptide concentration [2]: high activity
anti-proliferative activity in words [2]: reproducible over all tested concentrations

NGKKACLNPASPMVQKIIEKIL [SEQ ID NO: 106, GRO-γ/MIP-2β/CXCL3 AAA63184.1: 79-100]
peptide concentration at which maximum activity was observed [1, 7]: 0.01 µg/mL
anti-proliferative activity (maximum or stated level), scaled so that TNP-470 = 100% [1, 3]: 15%
peptide concentration at which maximum activity was observed [2]: 0.01 µg/mL

NGKQVCLDPEAPFLKKVIQKILDS [SEQ ID NO: 98, GCP-2/CXCL6 AAH13744.1: 86-109]
anti-proliferative activity, TNP-470 = 100% ([1]; 0.01 μg/ml peptide, 2 days): 30%
anti-proliferative activity in words at 10 μg/ml [1, 4]: Virtually no anti-proliferative activity
anti-proliferative activity (maximum or stated level), scaled so that TNP-470 = 100% [1, 5]: 35%
concentration-response profile in words [1]: biphasic behavior; also recorded: biphasic response
concentration-response profile in words [2]: biphasic behavior
anti-proliferative activity in words at high peptide concentration [2]: increased

NGRKACLNPASPIVKKIIEKMLNS [SEQ ID NO: 102, GRO-α/CXCL1 AAP35526.1: 80-103]
anti-proliferative activity in words at 10 μg/ml [1, 4]: statistically insignificant
anti-proliferative activity (maximum or stated level), scaled so that TNP-470 = 100% [1, 5]: 15%
anti-proliferative activity in words at high peptide concentration [2]: significantly increased

QDVFNKDGKVILLSPQAICLPKEK [SEQ ID NO: 158, reference compound]
anti-proliferative activity in words ([1]; 2- and 4-day assay, overall): not statistically significant

QPWGTCSESCGKGTQTRAR [SEQ ID NO: 44, Fibulin-6 CAC37630.1: 1688-1706]
concentration-response profile in words [1]: biphasic behavior
peptide concentration at which maximum activity was observed ([1]; 4 days): 0.01 µg/mL
anti-proliferative activity (maximum or stated level), scaled so that TNP-470 = 100% [1, 3]: ~40%
concentration-response profile in words [2]: activity increased with increasing peptide concentration

SPWTKCSATCGGGHYMRTR [SEQ ID NO: 61, Semaphorin 5A NP_003957.1: 848-866]
anti-proliferative activity in words ([1]; 2- and 4-day assay, overall): no anti-proliferative activity

SQWSPCSRTCGGGVSFRER [SEQ ID NO: 47, Papilin NP_775733.2: 33-51]
anti-proliferative activity in words ([1]; 2- and 4-day assay, overall): minimal anti-proliferative activity

TSWSPCSASCGGGHYQRTR [SEQ ID NO: 62, Semaphorin 5B AAQ88491.1: 916-934]
anti-proliferative activity (maximum or stated level), scaled so that TNP-470 = 100% [1, 5]: 10%
